Experimental data: US9670217B2, “Process for preparing chlorins and their pharmaceutical uses” (UNIVERSIDADE DE COIMBRA, priority 2008, dated 2017)

Assays:
[1] = tested on: S91I3 (mouse melanoma); assay: Cell photosensitization, 748 nm diode laser, resazurin; format: cell-based; details: 6 J/cm^2 diode laser irradiation at 28.5 mW
Procedure: The cell lines employed in laser irradiation were the HT-29 (human colon carcinoma), PC-3 (human prostate carcinoma), SW2 (human small cell lung cancer), A-549 (human non-small cell lung cancer). S91/I3 (mouse melanoma) and CT26 (mouse colon carcinoma). They were used both for cytotoxicity and photocytotoxicity experiments. PC-3. SW2 and S91113 cells were cultured in RPMI-1640 medium (Sigma-Aldrich, Steinheim, Germany) and HT-29, A-549 and CT26 cells were cultured in Dulbecco's Modified Eagle Medium (DMEM) (Cambrex Bioscience, Verviers, Belgium). Both cell culture mediums were supplemented with 10% heat-inactivated Fetal Bovine Serum (FBS) (Cambrex Bioscience, Verviers, Belgium) and 100 IU/ml penicillin-100 μg/ml streptomycin (Cambrex Bioscience, Verviers, Belgium). […] For the in vitro studies, cells at 85-90% confluence, were detached with Trypsin-Versene-EDTA solution (Cambrex Bioscience, Verviers, Belgium), counted and seeded in flat-bottom 96-well plates at the desired densities.
Cell viability assay. In the end of the experiences cell viability was evaluated by the resazurin reduction assay. […] The absorbance values of each well were measured at 540 nm and 630 nm using a microplate reader Multiskan Ex (Thermo-Electron Corporation, Vartaa, Finland).
Cell photosensitization. […] Cell viability was evaluated approximately 24 h after the irradiation.

[2] = tested on: CT26 mouse colon carcinoma; assay: PDT of implanted CT26 tumors; format: in vivo, Balb/C mice; details: 10 mg/kg i.p. in PEG400, 24 h post-injection, 748 nm, 132 J/cm^2
Text: The other mice were Balb/C weighing 20-25 g, from the animal breeding facility of Charles River Laboratories (Barcelona). The mice were kept on a standard laboratory diet with free access to drinking water. The use of such animals for experimental purposes was approved by the Board of Centro de Neurociências e Biologia Celular (Coimbra).
The tumors grew to reach 5 mm in diameter in about one week after the implantation. No spontaneous necrosis was observed. The treatment was initiated when the tumor attained 5 mm in diameter in each animal. The day the tumors reached the treatment size, the mice were injected via i.p. with a dose of 10 mg/kg of Luzitin-FMet in PEG400. At 24 h post-injection, four mice were anesthetized with ketamine and xylazine, and treated with the Hamamatsu 748 nm diode laser described before, at a fluence rate of 100 mW/cm^2 for 22 minutes (total fluence of 132 J/cm^2). Four other mice were not treated and served as control. The mice were checked daily, the tumors were measured using two orthogonal measurements L and W (perpendicular to L) and the volumes were calculated using the formula V=L×W^2/2 and recorded.

[3] = minipig

SMILES	concentration of sensitizer required to kill 90% of cells (LD90) [1] [µM]	tumor size after PDT vs non-irradiated controls [2]	depth of diffusion through stratum corneum and epidermis [3] [microns]	time to diffuse through all the epidermis [3] [h]	side effects of topical gel formulation ([3]; in vivo)
O=S(=O)(O)c1ccc(Cl)c(-c2c3nc(c(-c4c(Cl)ccc(S(=O)(=O)O)c4Cl)c4ccc([nH]4)c(-c4c(Cl)ccc(S(=O)(=O)O)c4Cl)c4nc(c(-c5c(Cl)ccc(S(=O)(=O)O)c5Cl)c5ccc2[nH]5)CC4)CC3)c1Cl [Luzitin-Cl2, 5,10,15,20-tetrakis(2,6-dichloro-3-sulfonylphenyl)bacteriochlorin]	40	–	–	–	–
CNS(=O)(=O)c1ccc(F)c(-c2c3nc(c(-c4cc(S(=O)(=O)NC)ccc4F)c4ccc([nH]4)c(-c4cc(S(=O)(=O)NC)ccc4F)c4nc(c(-c5cc(S(=O)(=O)NC)ccc5F)c5ccc2[nH]5)CC4)CC3)c1 [Luzitin-FMet, 5,10,15,20-tetrakis(2-fluoro-5-N-methylsulfamoylphenyl)bacteriochlorin]	–	smaller than the average size of the control animals and in one case the tumor completely disappeared	50	≤ 3	None of the animals, and in particular the animal that remained alive, showed evidence for side effects
